Three compounds from patent US20060020036A1, “Methods and compositions to promote bone homestasis” (priority 2004, published 2006) can be followed below.

Entries after “also recorded” stand apart in the source; their conditions may differ.

For this test, the target named is T1, NR1H2 (Homo sapiens, UniProt P55055).
T1 construct: amplification of the complete open reading frame from ATG start codon to the stop codon of drugable genes; expressed in transfected cells; host or cells: primary human mesenchymal progenitor cells (MPCs), transduced with Ad5-NR1H2 and Ad-hCAR
T1 sequence (P55055 1-460): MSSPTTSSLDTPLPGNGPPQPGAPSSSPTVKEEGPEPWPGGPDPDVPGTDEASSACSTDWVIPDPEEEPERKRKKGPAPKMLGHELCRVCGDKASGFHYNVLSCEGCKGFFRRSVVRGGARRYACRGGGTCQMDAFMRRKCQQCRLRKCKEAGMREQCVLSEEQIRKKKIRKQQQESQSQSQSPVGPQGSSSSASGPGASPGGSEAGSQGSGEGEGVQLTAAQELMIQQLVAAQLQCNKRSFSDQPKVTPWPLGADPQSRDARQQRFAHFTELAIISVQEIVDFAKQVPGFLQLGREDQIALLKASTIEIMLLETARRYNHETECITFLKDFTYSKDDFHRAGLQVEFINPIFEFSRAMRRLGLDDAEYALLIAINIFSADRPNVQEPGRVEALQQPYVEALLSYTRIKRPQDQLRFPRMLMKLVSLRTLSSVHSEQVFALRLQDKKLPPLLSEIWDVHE
Nature of the test: AP assay: MPCs infected with Ad-NR1H2 and treated with ligand. In kind it is cell-based. The settings on record: ligand at different concentrations. The protocol:
MPCs are seeded on day0 at 1000 cells per well of a 384 well plate and co-infected the next day using AdC51-hCAR (MOI 250) and different MOIs of Ad5-NR1H3 (MOI 2000, 666). On day 1, 5 concentrations (1E-9M, 1E-8M, 1E-7M, 1E-6M, 1E-5M) of the compound T0901317 (Cayman Chemical, Michigan, USA, Cat. No. 71810) with fixed vehicle concentration (DMSO at final concentration of 0.1%) are added to the wells. After 6 days, medium is removed and replaced with fresh medium containing the same concentrations of the compound T0901317. Readouts of AP activity are performed at several time points after the start of the experiment, typically after 7, 10 and 13 days. Up-regulation of alkaline phosphatase activity is read as follows: medium is removed from the monolayers, 15 μl MUP is added to each well, the plates are incubated for 15 min at 37° C. and then read for AP activity using a fluorescence plate reader (Fluostar, BMG).
MPCs are seeded on day 0 at 1000 cells per well of a 384 well plate and co-infected the next day using AdC51-hCAR (MOI 250) and different MOIs of Ad5-NR1H2 (MOI 2000, 666). […] Readouts of AP activity are performed at several time points after the start of the experiment, typically after 7, 10 and 13 days. Up-regulation of alkaline phosphatase activity is read as follows: medium is removed from the monolayers, 15 μL MUP is added to each well, the plates are incubated for 15 min at 37° C. and then read for AP activity using a fluorescence plate reader (Fluostar, BMG).
MPCs are seeded on day0 at 1000 cells per well of a 384 well plate and co-infected the next day using AdC5′-hCAR (MOI 250) and different MOIs of Ad5-NR1H2 or Ad-NR1H3 (MOI 2000, 6000). […] Readouts of AP activity are performed at several time points after the start of the experiment, typically after 7, 10 and 13 days. Up-regulation of alkaline phosphatase activity is read as follows: medium is removed from the monolayers, 15 μl MUP is added to each well, the plates are incubated for 15 min at 37° C. and then read for AP activity using a fluorescence plate reader (Fluostar, BMG).
Take `CC(=O)Oc1ccc2c(c1)[C@@]1(C)CCC[C@](C)(C(=O)OC(=O)[C@@]3(C)CCC[C@]4(C)c5cc(OC(C)=O)ccc5CC[C@@H]34)[C@@H]1CC2` [APD, acetyl podocarpic dimer]: the “up-regulation of endogenous alkaline phosphatase (AP) activity, dose-response” value (from here on “up-regulation”) is “dose-response relation is observed; also recorded: AP activity is up-regulated; also recorded: Dose-dependent up-regulation of AP activity”. Regarding `O=C(O)Cc1cccc(OCCCN(Cc2cccc(C(F)(F)F)c2Cl)CC(c2ccccc2)c2ccccc2)c1` [GW3965, 2-(3-(3-(N-(2-chloro-3-(trifluoromethyl)benzyl)-N-(2,2-diphenylethyl)amino)propoxy)phenyl)acetic acid], the “up-regulation” value is reported as “dose-response relation is observed; also recorded: AP activity is up-regulated; also recorded: Dose-dependent up-regulation of AP activity”. Take `O=S(=O)(c1ccccc1)N(CC(F)(F)F)c1ccc(C(O)(C(F)(F)F)C(F)(F)F)cc1` [T0901317, N-(2,2,2-trifluoroethyl)-N-[4-[2,2,2-trifluoro-1-hydroxy-1-(trifluoromethyl)ethyl]phenyl]-benzenesulfonamide]: the “up-regulation” value was “dose-response relation is observed; also recorded: AP activity is up-regulated; also recorded: Dose-dependent up-regulation of AP activity”.
